{
  "source": "paper PMC4605326",
  "about": "(Nucleic Acids Research, 2015)",
  "tested_on": "BsPif1",
  "settings": "50 nM enzyme; 67-mer ss oligonucleotide 25 μg/ml; 25 mM Tris-HCl pH 7.5, 50 mM NaCl, 2 mM MgCl2, 2 mM DTT; 37°C",
  "data": [
    {"compound": "Nc1ncnc2c1ncn2[C@@H]1O[C@H](COP(=O)(O)OP(=O)(O)OP(=O)(O)O)[C@@H](O)[C@H]1O", "note": "[ATP]", "values": [
      {"measurement": "Km", "result": 0.2, "unit": "µM"}
    ]}
  ]
}
